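Dose response: 5 concentrations. Exposure: 48 h. Format: 96-well plates. Endpoint: linear interpolation; highest concentration if not reached. Abbreviation: GI50, concentration required for 50% inhibition of growth. Definition used: TGI = concentration required for complete inhibition of growth.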
System: MDA-MB-468 breast
Assay: NCI anticancer screen, dose series, 48 h

SMILES | GI50 [nM] | TGI [nM]
C=C1CCC2C3(C)COC(c4cccc(Cl)c4)OC3CCC2(C)C1/C=C/C1=CCOC1=O (centres undefined) | 1420 | 7820
COc1cccc(C2C3=C(COC3=O)N(CCO)c3cc4c(cc32)CCC4)c1 (centres undefined) | 21.6 | 177
O=S(=O)(Nc1ccc(-c2nc(-c3cccc(O)c3)c(-c3ccnc(Br)c3)[nH]2)cc1)c1ccccc1 | 1850 | 5470
Nc1nccc(C#Cc2cncnc2Nc2ccc(OCc3cccc(F)c3)c(Cl)c2)n1 | 1510 | 4370
CC1(C)CCC(CN2CCN(c3ccc(C(=O)NS(=O)(=O)c4ccc(NCC5CCOCC5)c([N+](=O)[O-])c4)c(Oc4cnc5[nH]ccc5c4)c3)CC2)=C(c2ccc(Cl)cc2)C1 | 2150 | 7160
O=C(/C=C/c1cccnc1)/C=C/c1cccnc1 | 762 | 2220
CCCCCCCCCCCCCCCc1ccc(C(=O)C[n+]2ccccc2)cc1 | 1550 | 2890
S=c1nc(/C=C/c2ccc(Cl)c(Cl)c2)[nH][nH]1 | > 100000 | > 100000
C#CCSc1nnnn1-c1ccc(Br)c(C)c1 | 21200 | 79700
Cn1cc(-c2nonc2-c2cn(C)c3ccc(Br)cc23)c2ccccc21 | 1560 | 5170
COc1cccc(N2CCN(C3=C(Cl)C(=O)c4ncccc4C3=O)CC2)c1 | 1750 | 3430
Cn1cc(-c2ccc3c(c2)ncn3-c2ccc(CC(=O)Nc3cc(C(C)(C)C)on3)cc2)cn1 | 2830 | 16500
COc1cc2nc(-c3ccc(Cl)cc3)cc(OCCCN3CCC(O)CC3)c2cc1OC | 1560 | 4040
O=C1/C(=C\c2ccccc2)CN(C(=O)c2ccccc2F)C/C1=C\c1ccccc1 | 1810 | 3890
c1ccc(COc2ccc(Nc3ncnc4ccc(-c5ccco5)cc34)cc2)cc1 | 480 | 5320
C=C(CNCCc1ccc(O)cc1)[C@@H]1CC[C@]2(CO)CC[C@]3(C)[C@H](CC[C@@H]4[C@@]5(C)CCC(NCCO)C(C)(C)[C@@H]5CC[C@]43C)[C@@H]12 (some centres undefined) | 1260 | 2920
Cc1nc(N=C(N)N)nc2ccc3ccccc3c12 | 430 | 2060
Cn1cc(-c2csc(-c3cn(C)c4ncccc34)n2)c2ccccc21 | 445 | 6600
Cc1ccc2c(c1)/C(=N\N=C/c1cn(C(C)C)c3ccccc13)C(=O)N2 | 1840 | > 100000
CCOC(=O)/C(=C/c1c(-c2ccccc2)[nH]c2ccccc12)C(=O)c1ccc(Cl)cc1 | 4360 | > 100000
Cn1cccc1C1CC(=O)N(CCC[Se]C#N)C1=O (centres undefined) | 2680 | 9290
C/C(=N\NC(=S)Nc1ccccc1)c1ccccn1 | < 13.2 | 115

Reference: PubChem BioAssay (NCI)
